This note sets out measurements from US20030187007A1, “Inhibitors of protein kinase for the treatment of disease” (priority 2001, published 2003).

Each structure is given as a SMILES string.

Sequence of KDR (P35968 20-1356): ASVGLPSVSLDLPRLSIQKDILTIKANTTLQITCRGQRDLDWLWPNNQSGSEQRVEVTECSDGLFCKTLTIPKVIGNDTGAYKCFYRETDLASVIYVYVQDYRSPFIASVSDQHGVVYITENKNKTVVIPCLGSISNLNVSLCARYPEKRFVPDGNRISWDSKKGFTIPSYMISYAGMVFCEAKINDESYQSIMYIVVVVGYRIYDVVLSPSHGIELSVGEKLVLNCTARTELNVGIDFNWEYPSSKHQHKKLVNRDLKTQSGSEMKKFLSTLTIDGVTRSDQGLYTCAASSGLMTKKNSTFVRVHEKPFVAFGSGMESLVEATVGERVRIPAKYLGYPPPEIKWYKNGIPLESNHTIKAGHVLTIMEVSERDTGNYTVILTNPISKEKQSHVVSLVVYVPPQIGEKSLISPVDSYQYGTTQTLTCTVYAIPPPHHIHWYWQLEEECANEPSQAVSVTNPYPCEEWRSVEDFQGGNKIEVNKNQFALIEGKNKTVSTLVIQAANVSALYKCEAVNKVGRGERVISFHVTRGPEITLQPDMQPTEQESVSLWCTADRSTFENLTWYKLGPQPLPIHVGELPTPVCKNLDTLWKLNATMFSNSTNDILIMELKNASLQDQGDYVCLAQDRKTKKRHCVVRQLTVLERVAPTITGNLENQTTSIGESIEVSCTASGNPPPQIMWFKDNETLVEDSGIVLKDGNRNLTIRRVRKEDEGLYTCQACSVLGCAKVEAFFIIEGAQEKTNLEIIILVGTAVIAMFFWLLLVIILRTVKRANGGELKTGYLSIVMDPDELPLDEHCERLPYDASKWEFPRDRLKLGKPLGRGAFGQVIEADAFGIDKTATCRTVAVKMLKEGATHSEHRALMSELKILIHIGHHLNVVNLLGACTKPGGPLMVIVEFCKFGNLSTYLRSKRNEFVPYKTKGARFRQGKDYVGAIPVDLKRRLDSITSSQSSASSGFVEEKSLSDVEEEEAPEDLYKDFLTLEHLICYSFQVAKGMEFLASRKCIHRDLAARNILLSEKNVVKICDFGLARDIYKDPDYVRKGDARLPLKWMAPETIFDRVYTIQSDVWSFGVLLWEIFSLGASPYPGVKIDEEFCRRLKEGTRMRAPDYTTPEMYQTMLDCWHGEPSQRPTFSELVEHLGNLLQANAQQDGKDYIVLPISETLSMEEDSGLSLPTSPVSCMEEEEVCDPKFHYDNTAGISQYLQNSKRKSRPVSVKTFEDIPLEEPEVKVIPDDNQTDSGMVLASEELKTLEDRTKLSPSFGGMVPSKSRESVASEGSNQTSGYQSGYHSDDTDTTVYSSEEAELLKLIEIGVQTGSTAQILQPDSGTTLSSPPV

The target of the assay is KDR (Homo sapiens, UniProt P35968). In words: Enzyme assay for  (KDR), IC50 determination. In kind it is biochemical. The conditions noted are these: 50 nM KDR, 500 μM ATP. The procedure:
Enzyme assays for IC50 determinations were performed in 96-well titer plates, in a total reaction volume of 50 μL. Each reaction contained 1.5 μL of appropriate dilutions of inhibitor, 50 mM Hepes, pH 7.4, 1 mM DTT, 10 mM magnesium chloride, 2 mM phospho-poly(E4Y) (Sigma Chemical Company), 500 μM unlabeled ATP, 0.0025 μM [^33P]ATP (Amersham Pharmacia Biotech), and 50 nM KDR. All components except KDR were added to the wells, and the reaction was started by the addition of the enzyme. The reactions were mixed and incubated at room temperature for 1 hr, after which the reactions were quenched by the addition of 50 μL of 8% phosphoric acid. At this point, 90 μL aliquots of the samples were applied to positively charged DEAE 96-well filter plates (Millipore Corporation MADENOB10). The plates were incubated for 30 min at room temperature. The samples were aspirated and the wells were washed 3 times with 200 μL of 0.5% phosphoric acid. To each well, 50 μL of scintillation cocktail was added and counted for 60 sec in a TopCount microplate scintillation counter (Packard Instrument Company). The concentration of a compound that inhibited the activity of KDR by 50% (IC50) was determined based its inhibition curve.
Usually IC50 stands for the midpoint of a concentration-inhibition curve. Low values mean higher potency, high ones lower potency. Molecule `Nc1nc(-c2ccsc2)cc(-c2cc(-c3ccc(O)cc3)ccc2O)n1` [Example 113, 3-(2-Amino-6-thiophen-3-yl-pyrimidin-4-yl)-biphenyl-4,4′-diol] displayed an IC50 of 1000 to 20000 nM.
The same measure for `Nc1nc(N[C@H](CO)c2ccccc2)cc(-c2cc(-c3ccc(O)cc3)ccc2O)n1` [Example 97, 3-[2-Amino-6-(2-hydroxy-1S-phenyl-ethylamino)-pyrimidin-4-yl]-biphenyl-4,4′-diol]: below 1000 nM; for `Nc1nc(NCCc2c[nH]c3ccccc23)cc(-c2cc(-c3ccc(O)cc3)ccc2O)n1` [Example 100, 3-{2-Amino-6-[2-(1-indol-3-yl)-ethylamino]-pyrimidin-4-yl} biphenyl-4,4′-diol]: below 1000 nM.
The same measure for `Nc1nc(Nc2ccc(Cl)cc2)cc(-c2cc(-c3ccc(O)cc3)ccc2O)n1` [Example 110, 3-[2-Amino-6-(4-chloro-phenylamino)-pyrimidin-4-yl]-biphenyl-4,4′-diol]: below 1000 nM.
`Nc1nc(NCc2ccccc2F)cc(-c2cc(-c3ccc(O)cc3)ccc2O)n1` [Example 116] returned a concentration for half-maximal inhibition (IC50) below 1000 nM.
The same measure for `Nc1nc(N[C@H](CO)CSCc2ccccc2)cc(-c2cc(-c3ccc(O)cc3)ccc2O)n1` [Example 99, 3-[2-Amino-6-(2-benzylsulfanyl-1R-hydroxymethyl-ethylamino)-pyrimidin-4-yl]-biphenyl-4,4′-diol]: below 1000 nM; for `Nc1nc(Nc2cccc(Cl)c2)cc(-c2cc(-c3ccc(O)cc3)ccc2O)n1` [Example 109, 3-[2-Amino-6-(3-chloro-phenylamino)-pyrimidin-4-yl]-biphenyl-4,4′-diol]: below 1000 nM; for `COc1cccc(Nc2cc(-c3cc(-c4ccc(O)cc4)ccc3O)nc(N)n2)c1` [Example 111, 3-[2-Amino-6-(3-methoxy-phenylamino)-pyrimidin-4-yl]-biphenyl-4,4′-diol]: below 1000 nM.
The figure for `Nc1nc(N[C@@H](CO)c2ccccc2)cc(-c2cc(-c3ccc4[nH]ccc4c3)ccc2O)n1` [Example 93, 2-[2-Amino-6-(2-hydroxy-1 R-phenyl-ethylamino)-pyrimidin-4-yl]-4-(1H-indol-5-yl)-phenol] is below 1000 nM; for `CC(C)[C@@H](CO)Nc1cc(-c2cc(-c3ccc(O)cc3)ccc2O)nc(N)n1` [Example 103, 3-[2-Amino-6-(I -hydroxymethyl-2-methyl-propylamino)pyrimidin-4-yl]-biphenyl-4.4′-diol] it is 1000 to 20000 nM.
The figure for `Nc1nc(NCc2cccc(F)c2)cc(-c2cc(-c3ccc(O)cc3)ccc2O)n1` [Example 115, 3-[2-Amino-6-(3-fluoro-benzylamino)-pyrimidin-4-yl]-biphenyl-4,4′-diol] is 1000 to 20000 nM.
On to `Nc1nc(-c2cc(-c3ccc(O)cc3)ccc2O)cc(N2CCN(Cc3ccccc3)CC2)n1` [Example 101, 3-[2-Amino-6-(4-benzyl-piperazin-1-yl)-pyrimidin-4-yl]-biphenyl-4,4′-diol], for which the IC50 was 1000 to 20000 nM.
The molecule `COc1ccc(Nc2cc(-c3cc(-c4ccc(O)cc4)ccc3O)nc(N)n2)cc1` [Example 98, 3-[2-Amino-6-(4-methoxy-phenylamino)-pyrimidin-4-yl]-biphenyl-4,4′-diol] came in with an IC50 below 1000 nM.
The figure for `Nc1nc(NCc2ccccc2-c2ccccc2)cc(-c2cc(-c3ccc(O)cc3)ccc2O)n1` [Example 108, 3-{2-Amino-6-[(biphenyl-2-ylmethyl)-amino]-pyrimidin-4-yl}-biphenyl-4,4′-diol] is below 1000 nM.
